{"source": "paper PMC9477273", "about": "(2022)", "system": "biosensor 566229815 (RNA, ribozyme) GGGAAACAAACAAAGCUGUCACUGGAUUUCUUGACGAAUGUGCAGGAAACGGCUCCGGUCUGAUGAGUUCGUGGCGGGACGAAACAGCAAAAAGAAAAA", "test": "CleaveSeq ribozyme cleavage, deconvolution of 256-compound mixtures", "conditions": "sub-mM free Mg2+ (chelated by 9 mM rNTPs); 2 μM each compound in mixtures; ligand inferred (\"highly likely\"); 37 °C", "data": [{"compound": "C=CC[n+]1c(C=C2C=CC=CN2C)sc2ccccc21", "values": [{"measurement": "fold change of cleavage", "result": "> 2", "unit": "fold"}]}]}
